{"source": "paper PMC10517971", "about": "“An inverse agonist of orphan receptor GPR61 acts by a G protein-competitive allosteric mechanism” (Nature Communications, 2023)", "target": "hERG (Homo sapiens, UniProt Q12809)", "sequence (Q12809 whole entry)": "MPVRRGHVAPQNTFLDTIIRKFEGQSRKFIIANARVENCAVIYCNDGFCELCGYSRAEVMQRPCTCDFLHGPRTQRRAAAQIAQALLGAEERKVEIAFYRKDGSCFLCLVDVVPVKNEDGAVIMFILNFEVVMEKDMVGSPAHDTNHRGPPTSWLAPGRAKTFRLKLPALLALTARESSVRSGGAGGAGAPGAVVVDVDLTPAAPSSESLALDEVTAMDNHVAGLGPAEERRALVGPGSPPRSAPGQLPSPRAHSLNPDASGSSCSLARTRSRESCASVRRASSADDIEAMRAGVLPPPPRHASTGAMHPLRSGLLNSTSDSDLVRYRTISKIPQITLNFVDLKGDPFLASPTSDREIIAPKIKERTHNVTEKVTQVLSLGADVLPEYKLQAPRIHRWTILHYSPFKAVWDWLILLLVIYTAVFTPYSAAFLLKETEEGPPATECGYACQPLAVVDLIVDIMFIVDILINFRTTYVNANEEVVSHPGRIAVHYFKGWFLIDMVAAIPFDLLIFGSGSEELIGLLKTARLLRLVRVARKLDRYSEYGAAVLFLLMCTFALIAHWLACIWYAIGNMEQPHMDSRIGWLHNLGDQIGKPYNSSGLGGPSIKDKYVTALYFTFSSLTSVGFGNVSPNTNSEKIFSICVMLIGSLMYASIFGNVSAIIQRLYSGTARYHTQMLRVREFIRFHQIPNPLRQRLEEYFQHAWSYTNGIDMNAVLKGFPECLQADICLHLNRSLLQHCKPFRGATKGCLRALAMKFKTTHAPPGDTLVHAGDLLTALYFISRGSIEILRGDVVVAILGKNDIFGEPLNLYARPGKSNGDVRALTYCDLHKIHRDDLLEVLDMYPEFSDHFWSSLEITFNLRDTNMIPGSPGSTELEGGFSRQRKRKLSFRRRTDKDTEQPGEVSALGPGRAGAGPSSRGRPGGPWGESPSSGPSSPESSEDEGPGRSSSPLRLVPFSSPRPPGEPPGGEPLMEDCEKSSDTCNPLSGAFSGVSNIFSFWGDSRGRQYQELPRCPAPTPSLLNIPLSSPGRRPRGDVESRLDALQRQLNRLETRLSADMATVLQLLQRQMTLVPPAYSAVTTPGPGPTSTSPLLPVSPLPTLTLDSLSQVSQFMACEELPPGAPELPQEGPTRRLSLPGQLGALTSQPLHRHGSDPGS", "assay": "hERG ion channel profiling, Qube384 automated patch clamp (standard and extended protocol)", "format": "cell-based", "details": "for IC50: extended protocol", "source_text": "105 hERG, Nav1.5 and Cav1.2 Ion Channel Profiling\n106 Ionic curr ents wer e evalu ated in the whole-cell con figuration using the Qube384 automated planar\n107 patch clamp platform (Sophion Bioscience A/S, Ballerup, Denmark). QChip 384X plates,\n108 containing 10 patch clamp holes per well, were used to maximize success rate, which was routinely\n110 For hERG experiments, the external solution was composed of (in mM): 132 NaCl, 4 KCl, 1.8\n111 CaCl2, 1.2 MgCl2, 10 HEPES, 11 Glucose, pH 7.4, 305 mOsM. […]\n121 The hERG current was elicited from a holding potential of - 80 mV by a voltage step to +40 mV\n122 for 500 ms, followed by a repolarizing ramp to - 80 mV at - 0.6 mV/ms. This pattern was repeated\n123 at a rate of 0.05 Hz. Peak hERG current was measured during the ramp. […]\n126 Nav1.5 current, from a holding potential of - 80 mV, a 200 ms prepulse to - 120 mV was used to\n127 homogenize channel inactivation, followed by a 40 ms step to a test potential of - 15 mV.\n128 Membrane potential was further depolarized to +40 mV for 200 ms to completely inactivate the\n129 peak Nav1.5 current, followed by a ramp from +40 mV to - 80 mV (-1.2 mV/ms). This voltage\n130 pattern was repeated at 0.1 Hz, with peak Nav1.5 defined as the maximum current during the step\n131 to - 15 mV. All studies were conducted at 23° C.\n132 Compounds were dissol ved and initially diluted in dimethyl sulfoxide (DMSO), with a final\n133 dilution in external solution to generate final working concent rations. The final DMSO\n134 concentration in all experiments was 0.33% (v/v).\n135 For all protocols three vehicle periods each lasting 5 minutes were applied to establish a stable\n136 baseline. For the standard protocol this was followed by the addition of increasing concentrations\n137 of test compound, with each exposure lasting 5 minutes. For the “extended” protocol following\n138 the three- vehi cle additional each well subsequentl y received a single concentration of compound.\n139 This application was repeated three times for each well, via a flowthrough addition where the\n140 solution was replaced wi th the same compound concentration with each addition. Each exposure\n142 Patch clamp data were analyzed using Assay Software 6.4.72 (Sophion Bioscience A/S, Ballerup,\n143 Denmark). Current amplitudes were determined by averaging the last 4 currents under each test\n144 condition. The percentage inhibition of each compound was determined by taking the ratio of\n145 current amplitude measured in the presence of various concentrations of the test compound\n146 (ICompound) versus the vehicle control current (IVehicle):\n148 A dose-response curve was generat ed and fit to the Hill equation by the Sophion Analyzer software\n149 to determine an IC50 value for each compound. The minimum and the slope of the fit were free […]", "note": "pIC50: −log10 of the molar value. Where two headings read alike, the source gives them in different places.", "data": [{"smiles": "CCOc1cc(C)nc(N(CCOC)S(=O)(=O)c2ccc(NCc3c(F)cncc3F)nc2OC)n1", "note": "[Compound 1]", "values": [{"measurement": "IC50", "setting": "1st period, read-out: Ion Channel Extended Protocol IC50 (nM), Period 1st", "result": 36500, "unit": "nM"}, {"measurement": "IC50", "setting": "2nd period, read-out: Ion Channel Extended Protocol IC50 (nM), Period 2nd", "result": 28000, "unit": "nM"}, {"measurement": "IC50", "setting": "3rd period, read-out: Ion Channel Extended Protocol IC50 (nM), Period 3rd", "result": 18700, "unit": "nM"}, {"measurement": "pIC50", "setting": "standard protocol, read-out: Patch IC50", "result": 4.28}]}]}
